The values below come from patent publication US8193238B2, “Inhibition of microtubule protrusion in cancer cells” (University of Maryland, Baltimore, priority 2006, dated 2012).

The test system of test [1] is EpH4-Bcl2 cells. Description: Cell-substratum attachment assay. It counts as cell-based, mouse. As to the method:
In FIG. 6A, EpH4-Bcl2 cells were suspended over agarose and treated with inhibitors as above. Following treatment, cells were plated into 0.3% methylcellulose media over agarose and the rate of cell-cell attachment was followed by Hoescht DNA staining. […] Similar results were found in three independent experiments. In FIG. 6B, EpH4-Bcl2 cells suspended over agarose for one hour in DMEM or DMEM containing LA (5 μM), Colchicine (1 μM), or the combination. Reattachment of these cells to either uncoated tissue culture plates or those pre-coated with laminin was followed by XTT cell viability assay. Values represent mean+S.D. of raw XTT values of three separate experiments.
Equivalent numbers of B19 cells were suspended over 6-well plates coated in 2% agarose in serum-free media containing 5 μM Latrunculin-A (LA; BioMol, Plymouth Meeting, Pa.), 100 μM colchicine (Col; Sigma, St. Louis, Mo.), 5 μg/ml nocodazole (Noc), or 1 μg/ml vinblastine (VinB; Sigma) for a duration of 1 hr at 37° C. Cells were collected by centrifugation (1000 rpm×5 min) and drug containing media was aspirated. Cells were resuspended in EpH4 serum-containing growth media and aliquoted out into 24 wells (8 timepoints×3 replicates) of a 96-well clear bottom black plate. After plating, cells were allowed to attach for duration of 15 min, 45 min, 1.5 hr, 2 hr, 3 hr, 4 hr, 5 hr, and 24 hr at which point the media was aspirated from the replicate wells, washed twice in PBS, and fresh growth media was replaced at each timepoint. After 24 hr, all wells were aspirated and cells were incubated in growth media containing Hoescht 33342 (1:5000) for 30 min at 37° C. to label all attached cells. Fluorescence was measured using a Biotek Synergy HT Multi-Detection Microplate Reader (Winooski, Vt.) at excitation wavelength 360 nm and an emission filter of 460 nm followed by subsequent analysis using the KC4 Data Analysis software. The percentage of cell attachment for each treatment exposure was calculated as the RFU at each timepoint divided by the RFU at 24 h (maximum attachment). The standard deviations of triplicates at each timepoint are shown.
To determine if these microtubule protrusions influence the ability of cells to form attachments, the cells were treated with inhibitors of actin or tubulin polymerization and assessed both cell-cell and cell-substratum attachment (FIG. 6). […] Induction of such nonspecific attachment activity in detached mammary epithelial cells could promote tumor cell dissemination, particularly when apoptotic resistance allows this response to continue for extended periods.

Test [2] concerns Glu-tubulin. Description: Western blotting of modified tubulin isoforms in attached or suspended cells. The format is cell-based, mouse. As to conditions: for cellular levels of Glu-tubulin: EpH4-Bcl2, attached or detached, LA 5 μM. The procedure: EpH4-Bcl2 cells were grown attached to tissue culture dishes or suspended over agarose for the indicated times in either the absence or presence of LA (5 μM). In FIG. 5A, cell lysates were immunoblotted to detect levels of modified tubulin isoforms in the cell populations. In FIG. 5B, modified α-tubulin isoforms were normalized to total α-tubulin and then compared relative to the levels in attached cells at time zero. Bars represent the mean+S.E.M. of four independent experiments. […] Differences in Glu-tubulin upon detachment were also statistically-significant when compared to matched controls at time zero or one hour (black asterisks).
Whole cell lysates were prepared from EpH4 cells that were scraped or suspended in the presence or absence of 5 μM Latrunculin-A. Cells were pelleted at 3000 rpm×5 min and resuspended in lysis buffer (2% SDS, 100 mM Tris-HCl (pH 6.8), 20% Glycerol, 20 mM DTT, 1 mM phenylmethylsulfonyl fluoride, 1% protease inhibitor cocktail (Sigma, P2714)), and then immediately boiled for 10 min. Protein concentration was measured using a Lowry based assay (Bio-Rad, Hercules, Calif.). The amount of 17.5 μg of protein from each sample was separated by SDS-PAGE on 10% polyacrylamide gels and then transferred to Immuno-Blot PVDF membranes (Bio-Rad, Hercules, Calif.). The membrane was blocked in 2% milk in TBS with 0.1% Tween for 1 hr at room temperature followed by an overnight incubation at 4° C. in monoclonal α-tubulin (1:1000), tyrosinated tubulin (1:1000), acetylated tubulin (1:1000), and polyclonal detyrosinated tubulin (1:1000) in 1% milk in TBST. Secondary antibodies to IgG conjugated to horseradish peroxidase were used (1:5000; GE Healthcare, Piscataway, N.J.) and visualized using ECL chemiluminescent detection kit.
Immediately following detachment, levels of Glu-tubulin increase and remain elevated for at least 2 hours. […] The increased length and number of protrusions in response to LA may therefore reflect a decrease in an actin-dependent counteracting force, rather than a direct induction of protrusions.

Molecules are shown by their SMILES. Entries after “also recorded” stand apart in the source; their conditions may differ.

On to `C/C1=C/C(=O)O[C@@H]2C[C@@H](CC[C@H](C)/C=C\C=C\CC1)O[C@@](O)([C@@H]1CSC(=O)N1)C2` [Latrunculin-A], for which, in test [1] (EpH4-Bcl2 (B19), 1 hr in suspension with inhibitor, then replated), the “attachment of cells to tissue culture surfaces” value is on record as “did not significantly affect attachment”. Besides, the “cell-surface attachment to uncoated or laminin-coated plates (XTT)” value in test [1] (EpH4-Bcl2 suspended one hour, LA 5 μM, Colchicine 1 μM) was “does not affect cell-surface attachment”. Also, the “total cellular levels of α-tubulin, tyrosinated or acetylated tubulin” value in test [2] (EpH4-Bcl2, LA treatment) is “remain unaffected”. For the same compound, the entries for the “cellular levels of Glu-tubulin” value in test [2] and in test [2] (listed as LA) were “did not increase” and “not specifically increased; also recorded: does not significantly increase cellular levels of Glu-tubulin”, respectively.
